Experimental data as given in patent US20080096897A1, “5-(1,1'Biphenyl)-4-Yl-5-(4-(4-Aminoacylphenyl)-Piperazin)-1-Yl-Pyrimidine-2,4,6,-Trione Derivatives, As Inhibitors Of Zinc Metallondopeptidases, Their Preparation And Use” (priority 2004, published 2008).
Read-outs that look alike come from different tables or passages of the source.

Key:
[1] = target: recombinant human MMP14 (Homo sapiens, UniProt P50281); assay: MMP inhibition on isolated enzymes, fluorigenic peptide substrate; assay type: biochemical
Excerpt: (§1) The matrix metalloproteinase (MMP) inhibitory activity has been evaluated in a classical biochemical assay using fluorigenic peptide substrates. Briefly, a peptide bearing 1) a fluorescent group and 2) a quenching group bound to another amino acid of the peptide is submitted to the proteolytic action of an MMP. The cleavage of peptide bounds due to the MMP results in a dequenching of the fluorescent group. There is a direct relationship between the observed fluorescence and the activity of the enzyme. The MMP inhibiting activity of a given substance can then be assessed using this assay.
(§2) The compounds of the present invention have been assayed using this assay design with recombinant human MMP2, MMP14 and MMP16 and the peptide ZGly-Gly-ArgAMC, which is a well-known, commercially available substrate of MMPs.
(§3) The following IC50 values (inhibitor concentration required to inhibit 50% of the enzyme) have been obtained with the compounds prepared according to examples 2 to 5 and compared to a product of the state of the art, better known as Ro 28-2653. Ro 28-2653 is included in claim 1 of WO 01/25217.

[2] = target: T1, recombinant human MMP2 (Homo sapiens, UniProt P08253); assay: as above; assay type: biochemical
T1 sequence (P08253 110-660): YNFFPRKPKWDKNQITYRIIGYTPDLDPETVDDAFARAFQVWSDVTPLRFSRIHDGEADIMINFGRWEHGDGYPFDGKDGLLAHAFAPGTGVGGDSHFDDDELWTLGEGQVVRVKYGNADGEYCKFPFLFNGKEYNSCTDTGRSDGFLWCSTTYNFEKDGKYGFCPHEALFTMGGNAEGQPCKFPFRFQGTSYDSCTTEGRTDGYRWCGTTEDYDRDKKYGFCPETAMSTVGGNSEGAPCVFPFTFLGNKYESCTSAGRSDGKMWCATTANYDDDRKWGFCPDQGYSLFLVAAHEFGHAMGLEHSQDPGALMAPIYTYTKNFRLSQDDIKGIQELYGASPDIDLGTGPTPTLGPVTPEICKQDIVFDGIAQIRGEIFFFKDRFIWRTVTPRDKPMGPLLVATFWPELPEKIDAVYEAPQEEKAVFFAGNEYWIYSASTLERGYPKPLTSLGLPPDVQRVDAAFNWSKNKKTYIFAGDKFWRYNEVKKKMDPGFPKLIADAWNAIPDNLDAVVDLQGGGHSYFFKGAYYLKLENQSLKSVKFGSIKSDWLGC
Excerpt: as §1, §2, §3

[3] = target: recombinant human MMP16 (Homo sapiens, UniProt P51512); assay: as above; assay type: biochemical
Sequence of recombinant human MMP16 (P51512 120-607): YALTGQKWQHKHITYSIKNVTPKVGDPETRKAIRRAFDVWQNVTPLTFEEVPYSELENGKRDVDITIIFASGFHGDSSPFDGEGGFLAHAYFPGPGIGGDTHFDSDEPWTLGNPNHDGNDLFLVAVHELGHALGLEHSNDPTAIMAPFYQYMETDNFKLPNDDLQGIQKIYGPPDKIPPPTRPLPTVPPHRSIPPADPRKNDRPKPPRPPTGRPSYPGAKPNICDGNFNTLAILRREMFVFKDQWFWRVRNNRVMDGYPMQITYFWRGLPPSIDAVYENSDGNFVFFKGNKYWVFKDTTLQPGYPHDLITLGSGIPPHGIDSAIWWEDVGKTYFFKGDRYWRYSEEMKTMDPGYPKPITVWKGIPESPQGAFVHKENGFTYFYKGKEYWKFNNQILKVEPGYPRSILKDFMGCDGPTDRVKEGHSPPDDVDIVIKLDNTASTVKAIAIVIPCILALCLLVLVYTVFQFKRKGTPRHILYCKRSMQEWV
Excerpt: as §1, §2, §3

[4] = system: capillary vessel outgrowth from aorta rings; assay: aorta ring angiogenesis assay; assay type: cell-based; conditions: 10 μM in culture medium, rat aorta rings in collagen, 6-9 days
Experimental: Compound 5-(1,1′-biphenyl)-4-yl-5-{4-[4-(2,5-dioxopyrrolidin-1-yl)phenyl]piperazin-1-yl}pyrimidine-2,4,6(1H,3H,5H)-trione prepared according to example 4 has also been assayed in an aorta ring angiogenesis assay.
Briefly, in the aorta ring assay, fresh slices (ring) of aorta dissected from rat were embedded in collagen1 and then cultivated in Petri dishes after addition of culture medium (n=6). […] The effect of the compound of example 4 (10 μM) on angiogenesis was evaluated by its potency to stimulate or to inhibit the outgrowth of the capillary vessels when it was added to the culture medium (n=6).

In the case of `O=C1NC(=O)C(c2ccc(-c3ccccc3)cc2)(N2CCN(c3ccc([N+](=O)[O-])cc3)CC2)C(=O)N1` [Ro 28-2653, reference compound], the IC50 [1] is reported as 96 nM, the IC50 [2] is reported as 246 nM and the IC50 [3] is reported as 91 nM.
For `O=C(O)CCCC(=O)Nc1ccc(N2CCN(C3(c4ccc(-c5ccccc5)cc4)C(=O)NC(=O)NC3=O)CC2)cc1` [example 3, 4-{4-[4-(5-(1,1′-Biphenyl)-4-yl-2,4,6-trioxoperhydropyrimidin-5-yl)piperazin-1-yl]-phenylcarbamoyl}butyric acid], the IC50 [1] was 26 nM, the IC50 [2] was 98 nM and the IC50 [3] was 49 nM.
For `O=C1CCC(=O)N(c2ccc(N3CCN(C4(c5ccc(-c6ccccc6)cc5)C(=O)NC(=O)NC4=O)CC3)cc2)C1` [example 5, 5-(1,1′-Biphenyl)-4-yl-5-{4-[4-(2,5-dioxopiperidin-1-yl)phenyl]piperazin-1-yl}pyrimidine-2,4,6(1H,3H,5H)-trione], the IC50 ([1]; recombinant human MMP14, substrate ZGly-Gly-ArgAMC, read-out: IC50 (nM) values on isolated enzymes MMP-14) was 23 nM, the IC50 ([2]; recombinant human MMP2, substrate ZGly-Gly-ArgAMC, read-out: IC50 (nM) values on isolated enzymes MMP-2) was 93 nM and the IC50 ([3]; recombinant human MMP16, substrate ZGly-Gly-ArgAMC, read-out: IC50 (nM) values on isolated enzymes MMP-16) was 20 nM.
Work on `O=C(O)CCC(=O)Nc1ccc(N2CCN(C3(c4ccc(-c5ccccc5)cc4)C(=O)NC(=O)NC3=O)CC2)cc1` [example 2, N-{4-[4-(5-(1,1′-Biphenyl)-4-yl-2,4,6-trioxoperhydropyrimidin-5-yl)piperazin-1-yl]-phenyl}succinamic acid] yielded an IC50 [1] of 29 nM, an IC50 [2] of 110 nM and an IC50 [3] of 39 nM.
With `O=C1NC(=O)C(c2ccc(-c3ccccc3)cc2)(N2CCN(c3ccc(N4C(=O)CCC4=O)cc3)CC2)C(=O)N1` [example 4, 5-(1,1′-Biphenyl)-4-yl-5-{4-[4-(2,5-dioxopyrrolidin-1-yl)phenyl]piperazin-1-yl}pyrimidine-2,4,6(1H,3H,5H)-trione] the “effect on capillary vessel outgrowth (angiogenesis)” value [4] was “severely inhibit the capillary vessel outgrowth”, the IC50 [1] was 13 nM and the IC50 [2] was 75 nM. The IC50 [3] was 21 nM.
